Results as given in patent US20250295792A1, “POLYETHYLENE GLYCOL-MODIFIED FORM OF KININ OR DERIVATIVE THEREOF AND PHARMACEUTICAL USE THEREOF” (ZonHon Biopharma Institute, Inc., priority 2022, published 2025).
Read-outs that look alike come from different tables or passages of the source. Where a SMILES comes first, the peptide text is derived from it. Where no end group is shown, it is not given here. [ ]: non-standard residue; d: D form. M‑SPA‑5K = straight-chain monomethoxy PEG succinimidyl propionate, about 5 kDa; 2Thi = N[C@@H](Cc1cccs1)C(=O)O

Tests used:
B2 receptor = target: T1, B2 receptor (Homo sapiens, UniProt P30411); assay: B2 receptor reporter gene assay in B2-NFAT-CHO-K1 cells; type: cell-based; details: Table 3-1; relative activity calculated from EC50, wild type Lys-BK = 100%
T1 construct: expressed in transfected cells; host or cells: CHO-K1
T1 sequence (P30411 1-391): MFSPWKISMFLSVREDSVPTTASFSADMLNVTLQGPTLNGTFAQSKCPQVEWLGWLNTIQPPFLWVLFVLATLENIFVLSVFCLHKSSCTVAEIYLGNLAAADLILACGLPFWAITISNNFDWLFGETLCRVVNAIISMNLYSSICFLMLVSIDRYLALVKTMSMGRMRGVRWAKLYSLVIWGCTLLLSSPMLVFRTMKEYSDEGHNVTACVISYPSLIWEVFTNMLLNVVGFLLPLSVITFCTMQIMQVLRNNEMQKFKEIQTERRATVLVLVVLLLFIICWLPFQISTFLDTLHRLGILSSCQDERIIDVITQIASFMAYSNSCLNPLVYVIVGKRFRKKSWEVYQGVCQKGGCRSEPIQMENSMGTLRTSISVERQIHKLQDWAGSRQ
Description: The pharmacological action of lysyl bradykinin/bradykinin in vivo is achieved by binding to B2 receptors and activating downstream signaling pathways
The cell line B2-NFAT-CHO-K1 stably transfected with B2 receptor reporter gene was constructed based on CHO-K1 host cells and the cell library was constructed. The B2-NFAT-CHO-K1 cell library was used to evaluate the binding activity of lysyl bradykinin/bradykinin or its variants or PEG modified products to B2 receptor in vitro.
Detection methods: The cells were cultured in 96-well plates at 5×10^4 cells/well, 37° C., 5% CO2 for 16-20 hours, and then gradient diluted standard and test solutions were added. After 5 hours, added Bio-Lite luciferase detection reagent and the chemiluminescence intensity was measured. GraphPad was used to make four-parameter equation curve and calculate the relative activity according to the EC50 value.
(§1) In vitro B2-receptor affinity activity and activity of activating downstream signaling pathway of PEG conjugates of lysyl bradykinin and its variants were tested, as in Example 3.

[1] = Stability in SD rat serum system in vitro (UPLC-RP)
Method: Assess the stability of lysyl bradykinin/bradykinin by evaluating its stability in serum system in vitro. 2 mg/ml peptide and SD rat serum were mixed at volume ratio of 85:15, incubated at 37° C. for 30 min, 60 min, 90 min, 120 min, 180 min, etc, terminate by adding 3% trichloroacetic acid (50% volume of the above mixture system with peptide and serum) and effectively remove matrix interference in the serum. Further monitor the degradation of peptide samples in the serum system to evaluate its stability basing on UPLC-RP-UV214 nm method. RP analysis method: Protein BEH C4 2.1×150 mm as chromatographic column, 1.7 μm, column temperature 30° C., mobile phase A: 0.1% TFA/H2O, mobile phase B: 0.1% TFA/ACN, gradient: 0-5 min, 5% B; 5-10 min, 5-40% B; 10-30 min, 40-60% B; 30-32 min, 60-100% B; 32 to 35 min, 5% B.
The stability of PEG conjugates of lysyl bradykinin and its variants was indirectly evaluated by evaluating their stability in serum system in vitro, as determined in Example 2.

[2] = subcutaneous 30 mg in adults; cited from earlier work
[3] = test system: middle cerebral artery occlusion (MCAO) cerebral ischemia-reperfusion model; assay: MCAO cerebral ischemia-reperfusion model: neurological deficit score and cerebral infarct size; type: in vivo, SD rats; details: for Neurological deficit symptoms compared with the model group (in words): Example 7, FIG. 7a; for Neurological deficit symptoms compared with the model group (in words) / Cerebral infarct size compared with the model group (in words): intravenous, Edaravone 6 mg/kg, conjugate 3 mg/kg; for Cerebral infarct size compared with the model group (in words): Example 7, FIG. 7b
Method: SD rats, male, SPF grade, weighing 270-300 g. The middle cerebral artery occlusion (MCAO) of cerebral ischemia-reperfusion model was prepared by using the intraluminal suture method in rats. Animals were anesthetized with gas (isoflurane), and then fixed them in a supine position. The skin was disinfected, and the right common carotid artery, external carotid artery, and internal carotid artery were separated from the midline incision in the neck. The vagus nerve was gently peeled off, and the external carotid artery was ligated and cut. The common carotid artery was clamped near the proximal end, and an incision was made from the distal end of the ligature line of the external carotid artery. The suture (model 2438-A5, purchased from Beijing Xinong Technology Co., LTD.) was inserted and passed through the bifurcation of the common carotid artery into the internal carotid artery. The suture was then slowly inserted until slight resistance was encountered (about 20 mm from the bifurcation), blocking the blood supply to the middle cerebral artery. The neck skin was sutured, disinfected, and the rat was returned to the cage. After 90 minutes of ischemia, the rat was anesthetized again, fixed on the rat board, and the neck skin was cut open to find the suture, which was gently removed. Reperfusion was performed, and the neck skin was sutured, disinfected, and the rat was returned to the cage for feeding.
The rats were divided into sham operation group, model group (administered PBS intravenously), Edaravone group (administered intravenously, 6 mg/kg), and PEG conjugate of lysyl bradykinin group (administered intravenously, 3 mg/kg). The rats were injected once after 2 hours of reperfusion.
The modified Bederson method was used to evaluate neurological defect symptoms.
Animals were anesthetized with 10% chloral hydrate, the brain tissue was removed, the olfactory bulbs, cerebellum and lower brainstem were removed, and the bloodstain on brain surface was washed with […]. After removing surface residual water, the brain tissue was placed at −80° C. for 7 minutes, took out and cut into coronal sections perpendicular to the visual cross plane, and sliced at intervals of 2 mm to the posterior direction. The brain slices were placed in fresh TTC (20 g/L) dye solution prepared with SPSS at 37° C. for 90 minutes. Normal brain tissue was stained deep red, while ischemic brain tissue appeared pale. After washing with SPSS, the brain slices were quickly arranged in sequence from front to back, residual water on the surface was absorbed, and photographed. The image analysis software (Image Tool) was used to delineate the ischemic area (white area) and the right side area on the photos for statistical analysis. The percentage of cerebral infarction area was calculated using the following formula:
Cerebral infarction area (%)=100×total ischemic area/total right hemisphere area.
Except for Table 7-6, the dosage of the other groups was 3 mg/kg (all the dosage was calculated based on peptides). The administration methods included intravenous injection and subcutaneous injection, and the injection was given once after 2 hours of reperfusion.
Based on the same model, the effect of PEG conjugate of lysyl bradykinin variant was investigated by both intravenous and subcutaneous injection at dose of […] (the dose was calculated based on polypeptide). […]

[4] = test system: p-CREB and p-ERK1/2, B2 receptor downstream signals; assay: Western blot of p-ERK1/2 and p-CREB in CHO-K1 cells overexpressing B2 receptor; type: cell-based; details: FIG. 5
Method: as §1

[5] = Table 2-1, 2 mg/ml peptide : SD rat serum 85:15 v/v, 37° C., sampled 30-180 min

Lys-BKm10: variant peptide SPFR, SEQ ID NO 11
Relative affinity activity (B2 receptor): 0%

N=C(N)NCCC[C@H](NC(=O)[C@H](Cc1ccccc1)NC(=O)[C@@H]1CCCN1C(=O)[C@H](CO)NC(=O)[C@H](Cc1cccs1)NC(=O)CNC(=O)[C@@H]1CCCN1C(=O)[C@@H]1CCCN1C(=O)[C@H](CCCNC(=N)N)NC(=O)[C@H](CCCNC(=N)N)NC(=O)[C@@H](N)CCCCN)C(=O)O [Lys-BKm11] (H-KRRPPG[2Thi]SPFR-OH; N-terminus and C-terminus assumed)
Residual time in serum system [1, 5]: 60~90 min

N=C(N)NCCC[C@H](NC(=O)[C@H](Cc1ccccc1)NC(=O)[C@@H]1CCCN1C(=O)[C@H](CO)NC(=O)[C@H](Cc1cccs1)NC(=O)CNC(=O)[C@@H]1CCCN1C(=O)[C@@H]1CCCN1C(=O)[C@H](CCCNC(=N)N)NC(=O)[C@H](CCCNC(=N)N)NC(=O)[C@H](CCCNC(=N)N)NC(=O)[C@@H](N)CS)C(=O)O [Lys-BKm16] (H-CRRRPPG[2Thi]SPFR-OH; N-terminus and C-terminus assumed)
Residual time in serum system [1, 5]: 60~90 min

NC(N)=NCCC[C@@H](N)C(=O)N[C@@H](CCCN=C(N)N)C(=O)N1CCC[C@H]1C(=O)N1C[C@H](O)C[C@H]1C(=O)NCC(=O)N[C@@H](Cc1cccs1)C(=O)N[C@@H](CO)C(=O)N1Cc2ccccc2C[C@@H]1C(=O)N1[C@H](C(=O)N[C@@H](CCCN=C(N)N)C(=O)O)C[C@@H]2CCCC[C@@H]21 [icatibant]
peak blood concentration [2]: 405 ng/mL | time to peak blood concentration [2]: 1.79 h

Lys-BKm13-SPA5K: Lys-BKm13 N-terminally single-modified with M-SPA-5K PEG ({M‑SPA‑5K}-CRRPPG[2Thi]SPFR)
Neurological deficit symptoms and cerebral infarction area compared with the model group (in words) ([3]; Example 9, intravenous and subcutaneous injection 4.5 mg/kg): significant improvement in neurological deficit symptoms and cerebral infarction area | Neurological deficit symptom score ([3]; Table 7-4, intravenous injection 3 mg/kg, model group 3.00 ± 0.10): 2.13 ± 0.15 | Cerebral infarct size (%) ([3]; Table 7-4, intravenous injection 3 mg/kg, model group 38.79 ± 2.01): 23.54 ± 1.99 % | Neurological deficit symptom score ([3]; Table 7-6, subcutaneous injection 4.5 mg/kg, model group 3.00 ± 0.09): 2.69 ± 0.12 | Cerebral infarct size (%) ([3]; Table 7-6, subcutaneous injection 4.5 mg/kg, model group 41.40 ± 1.83): 36.07 ± 2.47% | Neurological deficit symptom score ([3]; Table 8-1, intravenous injection 4.5 mg/kg, model group 2.80 ± 0.11): 2.19 ± 0.16 | Cerebral infarct size (%) ([3]; Table 8-1, intravenous injection 4.5 mg/kg, model group 38.45 ± 2.16): 25.16 ± 2.36 % | Neurological deficit symptom score ([3]; Table 8-1, subcutaneous injection 4.5 mg/kg, model group 2.80 ± 0.11): 2.25 ± 0.17 | Cerebral infarct size (%) ([3]; Table 8-1, subcutaneous injection 4.5 mg/kg, model group 38.45 ± 2.16): 26.06 ± 2.69 % | Activity of activating phosphorylation of ERK1/2 and CREB, PEG conjugates (in words) [4]: highest activity among different peptide variants

CC1=NN(c2ccccc2)C(=O)C1 [Edaravone, reference compound]
Neurological deficit symptoms compared with the model group (in words) [3]: significant improvement in neurological deficit symptoms | Cerebral infarct size compared with the model group (in words) [3]: significant improvement in cerebral infarct size | Neurological deficit symptom score ([3]; Table 6-1, intravenous 6 mg/kg once 2 h after reperfusion, Mean ± SE, model group 3.13 ± 0.09): 2.40 ± 0.13 | Cerebral infarct size (%) ([3]; Table 6-2, intravenous 6 mg/kg, Mean ± SE, model group 48.50 ± 1.66): 34.12 ± 2.35 %

Lys-BK-SPA5K: wild-type Lys-BK N-terminally single-modified with straight-chain M-SPA-5K PEG (about 5 kDa)
Neurological deficit symptoms compared with the model group (in words) [3]: significant improvement in neurological deficit symptoms | Cerebral infarct size compared with the model group (in words) [3]: significant improvement in cerebral infarction area | Neurological deficit symptom score ([3]; Table 6-1, intravenous 3 mg/kg once 2 h after reperfusion, Mean ± SE, model group 3.13 ± 0.09): 2.38 ± 0.15 | Cerebral infarct size (%) ([3]; Table 6-2, intravenous 3 mg/kg, Mean ± SE, model group 48.50 ± 1.66): 34.84 ± 2.90 % | Neurological deficit symptom score ([3]; Table 7-1, intravenous injection 3 mg/kg, model group 2.69 ± 0.12): 2.13 ± 0.18 | Cerebral infarct size (%) ([3]; Table 7-1, intravenous injection 3 mg/kg, model group 38.73 ± 1.99): 24.73 ± 3.15 % | Neurological deficit symptom score ([3]; Table 9-1, oral administration once 6 mg/kg, model group 2.12 ± 0.17): 1.60 ± 0.17 | Cerebral infarct size (%) ([3]; Table 9-1, oral administration once 6 mg/kg, model group 29.23 ± 4.32): 22.82 ± 2.56% | Residual time in serum system [1]: >6 h

Lys-BKm08: variant peptide PG{THI}SPFR, SEQ ID NO 9 (PG[2Thi]SPFR)
Relative affinity activity (B2 receptor): <10%

Lys-BKm09: variant peptide {THI}SPFR, SEQ ID NO 10 ([2Thi]SPFR)
Relative affinity activity (B2 receptor): 0%

N=C(N)NCCC[C@H](NC(=O)[C@H](Cc1ccccc1)NC(=O)[C@@H]1CCCN1C(=O)[C@H](CO)NC(=O)[C@H](Cc1cccs1)NC(=O)CNC(=O)[C@@H]1CCCN1C(=O)[C@@H]1CCCN1C(=O)[C@H](CCCNC(=N)N)NC(=O)[C@H](CCCCN)NC(=O)[C@H](CCCNC(=N)N)NC(=O)[C@H](Cc1ccccc1)NC(=O)[C@@H]1CCCN1C(=O)[C@H](CO)NC(=O)[C@H](Cc1cccs1)NC(=O)CNC(=O)[C@@H]1CCCN1C(=O)[C@@H]1CCCN1C(=O)[C@H](CCCNC(=N)N)NC(=O)[C@@H](N)CCCCN)C(=O)O [Lys-BKm14] (H-KRPPG[2Thi]SPFRKRPPG[2Thi]SPFR-OH; N-terminus and C-terminus assumed)
Residual time in serum system [1, 5]: 1.5 to 2 h
